Results reported in patent publication US9796707B2, “Piperazine derivatives for treating disorders” (The University of Nottingham, priority 2014, dated 2017).
Values belong to the molecule of their own block, whether it stands above or below them.

Experiments:
[1] = type: cell-based
Text: To test whether compounds of Formula (I) are safe to administer to patients we began a basic safety test of these compounds in vitro.

[2] = Solubility in water
[3] = mouse, in vivo
Experimental: Mice were treated for six days with 2 μg per eye SPHINX31 as eye drops, and ERG carried out using a Micron IV Ganzfield ERG system as recommended by the manufacturers instructions.
Scotopic ERG recordings were taken in dark adapted animals following stimulation with increasing intensities of green (FIGS. 20A, 20C, 20E, 20G) light (to activate M-cones and rods) or UV (FIGS. 20B, 20D, 20F, 20H) light (to activate S-cones and rods). […] ERG amplitude at different intensities of green (FIGS. 20C, 20E) or UV (FIGS. 20D, 20F) are shown for the A wave (FIGS. 20C, 20D) and B wave (FIGS. 20E, 20F).

[4] = Half life in human liver microsomes
Text: We also tested the half life of these compounds when exposed to human liver microsomes.

[5] = system: SRSF1 nuclear localisation in PC3 prostate cancer cells; assay: SRSF1 localisation by immunofluorescence
[6] = system: SRSF1 nuclear localisation in MDA-MB231 cells; assay: SRSF1 localisation by immunofluorescence
[7] = system: choroidal neovascularisation; settings: mouse CNV, eye drops, previously shown; cited from earlier work
[8] = Scleral permeability, modified Ussing chamber; type: in vitro ADME; settings: rabbit
Experimental: Scleral permeability was measured using a modified Ussing chamber assembly in isotonic assay buffer (pH 7.4). Rabbit or porcine excised eye tissues were mounted in the chambers such that the episcleral side faced the donor chamber and the retinal side faced the receiver chamber. The chambers were filled with equal volumes of assay buffer, with (donor side) or without (receiver side) 1 μg/ml compound. After 4 or 24 hours tissue was removed from the chamber and the receiver side (“vitreous”) sampled. Tissue was dissected into sclera, choroid/RPE, and retina and homogenised.
After 0, 4 or 24 hours, the fluid from the bottom chamber (vitreous) and the retinal tissue was isolated and compounds purified by acetonitrile extraction and HPLC.

[9] = system: neovascular AMD; settings: 0.5 mg monthly, at one year; cited from earlier work

Molecule: CN(C)CCN1CCN(c2ccc(C(F)(F)F)cc2NC(=O)c2ccc(-c3ccncc3)o2)CC1 [SPHINX7]
toxic doses [1]: greater than 10 μM

solubility in water of salt forms [2]: more freely soluble in water
Molecule: O=C(Nc1cc(C(F)(F)F)ccc1N1CCN(Cc2cccnc2)CC1)c1ccc(-c2ccncc2)o1 [Compound 13]

Molecule: O=C(Nc1cc(C(F)(F)F)ccc1N1CCN(Cc2ccccn2)CC1)c1ccc(-c2ccncc2)o1 [Compound 12]
solubility in water of salt forms [2]: more freely soluble in water
effect on scotopic or photopic activity [3]: No effect
Half life [4]: 1.025 h
SRSF1 localisation [5]: inhibited cellular localisation
SRSF1 localisation [6]: inhibited cellular localisation

Molecule: O=C(Nc1cc(C(F)(F)F)ccc1N1CCCCC1)c1ccncc1 [SRPIN340]
eye drop concentration of maximum effect [7]: 10 µg/mL

detection in retina ([8]; 4 hrs): could not
detection in vitreous (bottom chamber) ([8]; 4 hrs): could not
detection in vitreous (bottom chamber) ([8]; 24 hours): detected
Molecule: Cc1ccc(Nc2nccc(N(C)c3ccc4c(C)n(C)nc4c3)n2)cc1S(N)(=O)=O [pazopanib]

solubility in water of salt forms [2]: more freely soluble in water
Molecule: O=C(Nc1cc(C(F)(F)F)ccc1N1CCN(Cc2ccncc2)CC1)c1ccc(-c2ccncc2)o1 [Compound 14]

Molecule: Cc1ccc(C(=O)Nc2cc(C(F)(F)F)ccc2N2CCOCC2)o1 [SPHINX]
eye drop concentration of maximum effect [7]: 10 µg/mL

B1: Lucentis: novel humanized anti-VEGF antibody fragment (antibody, chains of the INN, looked up, V domains shown)
VH: EVQLVESGGGLVQPGGSLRLSCAASGYDFTHYGMNWVRQAPGKGLEWVGWINTYTGEPTYAADFKRRFTFSLDTSKSTAYLQMNSLRAEDTAVYYCAKYPYYYGTSHWYFDVWGQGTLVTVSS
VL: DIQLTQSPSSLSASVGDRVTITCSASQDISNYLNWYQQKPGKAPKVLIYFTSSLHSGVPSRFSGSGSGTDFTLTISSLQPEDFATYYCQQYSTVPWTFGQGTKVEIK
modifications: Fab
notes: novel humanized anti-VEGF antibody fragment
patients who maintained visual acuity (loss of <15 letters) [9]: approximately 95%
patients with improved vision (gain of ≧15 letters) [9]: ≤ 40%
